These are literature values, as cited in PMC12854702 (Synlett : accounts and rapid communications in synthetic …, 2025).

One series relates to human SLACK. Particulars: Tl+-flux, HEK-293 cells stably expressing human SLACK.
Series [1] relates to serotonin 5-HT2A receptor.

Regarding `CN1CCN(C2=Nc3ccccc3Oc3ccc(Cl)cc32)CC1` [loxapine], in the series with human SLACK, the “SLACK activation Emax” value is given as 100%. Also, the “antagonism of dopamine D2 receptor” value in the series with dopamine D2 receptor is listed as “potent antagonist”. Moreover, in the series with histamine H1 receptor, the “antagonism of histamine H1 receptor” value is “potent antagonist”. Moreover, the “antagonism of serotonin 5-HT2A receptor” value in series [1] was “potent antagonist”.
